In publication PMC10706071, “Simultaneous Improvement in the Thermostability and Catalytic Activity of Epoxidase Lsd18 for the Synthesis of Lasalocid A” (International Journal of Molecular Sciences, 2023):

What was measured:
Assay type in all cases: binding
[1] = target: T1, Lsd18 (Streptomyces lasalocidi, UniProt B5M9L6, T173M/S179M); assay: X-ray crystal structure ([…] Å); FAD content by absorbance at […] nm; settings: co-purified FAD; reductively ethylated protein for crystals
T1 construct: full-length gene in pCold (NdeI/EcoRI), E. coli BL21(DE3) with chaperone plasmid pG-KJE8, Ni beads and gel filtration; reductively ethylated for crystals only
T1 sequence (B5M9L6 whole entry T173M/S179M): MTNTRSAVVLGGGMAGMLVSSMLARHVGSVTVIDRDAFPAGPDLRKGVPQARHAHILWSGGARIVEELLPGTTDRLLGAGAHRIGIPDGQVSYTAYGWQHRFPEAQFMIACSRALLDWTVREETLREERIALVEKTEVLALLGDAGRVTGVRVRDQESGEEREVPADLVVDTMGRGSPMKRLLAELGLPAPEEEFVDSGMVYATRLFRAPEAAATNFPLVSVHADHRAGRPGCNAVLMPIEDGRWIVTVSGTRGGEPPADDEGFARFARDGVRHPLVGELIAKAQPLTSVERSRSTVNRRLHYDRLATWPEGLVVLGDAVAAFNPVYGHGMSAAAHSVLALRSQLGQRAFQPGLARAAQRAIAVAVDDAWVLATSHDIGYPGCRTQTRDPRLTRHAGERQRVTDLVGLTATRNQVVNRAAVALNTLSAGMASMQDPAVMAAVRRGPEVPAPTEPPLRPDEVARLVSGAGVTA

[2] = target: T2, Lsd18 (Streptomyces lasalocidi, UniProt B5M9L6, T173M); assay: bound FAD released by heating, absorbance at […] nm; settings: co-purified FAD; 20 mM Tris pH 8.5, 150 mM NaCl
T2 construct: full-length gene in pCold (NdeI/EcoRI), E. coli BL21(DE3) with chaperone plasmid pG-KJE8, Ni beads and gel filtration; reductively ethylated for crystals only
T2 sequence (B5M9L6 whole entry T173M): as the sequence (B5M9L6 whole entry T173M/S179M) above, with M179S counted along it

[3] = target: T3, Lsd18 (Streptomyces lasalocidi, UniProt B5M9L6); assay: bound FAD released by heating ([…] °C, […] min), absorbance at […] nm; settings: co-purified FAD; 20 mM Tris pH 8.5, 150 mM NaCl
T3 construct: full-length gene in pCold (NdeI/EcoRI), E. coli BL21(DE3) with chaperone plasmid pG-KJE8, Ni beads and gel filtration; reductively ethylated for crystals only
T3 sequence (B5M9L6 1-472): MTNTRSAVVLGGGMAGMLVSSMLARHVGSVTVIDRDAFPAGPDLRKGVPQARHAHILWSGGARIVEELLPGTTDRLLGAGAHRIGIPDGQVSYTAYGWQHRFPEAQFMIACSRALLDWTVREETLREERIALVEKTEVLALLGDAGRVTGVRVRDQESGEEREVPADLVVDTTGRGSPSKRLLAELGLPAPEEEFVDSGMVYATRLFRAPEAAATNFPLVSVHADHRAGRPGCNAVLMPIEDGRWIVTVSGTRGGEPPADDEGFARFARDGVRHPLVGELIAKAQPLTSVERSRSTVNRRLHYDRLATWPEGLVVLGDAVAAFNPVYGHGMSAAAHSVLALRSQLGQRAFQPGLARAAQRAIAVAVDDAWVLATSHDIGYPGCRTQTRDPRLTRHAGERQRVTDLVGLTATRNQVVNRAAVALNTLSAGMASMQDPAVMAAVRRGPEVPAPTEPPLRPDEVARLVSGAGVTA

[4] = target: T4, Lsd18 (Streptomyces lasalocidi, UniProt B5M9L6, S179M); assay: bound FAD released by heating, absorbance at […] nm; settings: co-purified FAD; 20 mM Tris pH 8.5, 150 mM NaCl
T4 construct: full-length gene in pCold (NdeI/EcoRI), E. coli BL21(DE3) with chaperone plasmid pG-KJE8, Ni beads and gel filtration; reductively ethylated for crystals only
T4 sequence (B5M9L6 whole entry S179M): as the sequence (B5M9L6 whole entry T173M/S179M) above, with M173T counted along it

## Cc1cc2nc3c(=O)[nH]c(=O)nc-3n(C[C@H](O)[C@H](O)[C@H](O)COP(=O)(O)OP(=O)(O)OC[C@H]3O[C@@H](n4cnc5c(N)ncnc54)[C@H](O)[C@@H]3O)c2cc1C [FAD]
[1]
  X-ray crystal structure (3.76 Å); FAD content by absorbance at 451 nm: M189 forms a hydrogen bond with the cofactor FAD that could stabilize the binding
[2]
  FAD content: the FAD content in the mutants Lsd18-T189M, Lsd18-S195M, Lsd18-T189M-S195M increased
[3]
  FAD content: the yellower the color of Lsd18 (attributed to bound FAD), the more stable it was
[4]
  FAD content: the FAD content in the mutants Lsd18-T189M, Lsd18-S195M, Lsd18-T189M-S195M increased
